pIC50: −log10 of the molar value.
Columns and labels:
Format in all cases: biochemical
[1] = biological target: T1, recombinant alpha-glucosidase II (murine full-length glucosidase II, alpha and beta subunits, Glu 2) (Mus musculus, UniProt Q8BHN3); assay: Alpha-glucosidase II assay (4-methylumbelliferyl-alpha-D-pyranoside substrate, fluorescence); settings: Glucosidase 2; read-out: Glu2 IC50
T1 construct: made in house; host or cells: HEK-293T cells transduced with BacMam viruses (75% alpha, 25% beta); protein harvested from culture supernatant
T1 sequence (O08795 15-521): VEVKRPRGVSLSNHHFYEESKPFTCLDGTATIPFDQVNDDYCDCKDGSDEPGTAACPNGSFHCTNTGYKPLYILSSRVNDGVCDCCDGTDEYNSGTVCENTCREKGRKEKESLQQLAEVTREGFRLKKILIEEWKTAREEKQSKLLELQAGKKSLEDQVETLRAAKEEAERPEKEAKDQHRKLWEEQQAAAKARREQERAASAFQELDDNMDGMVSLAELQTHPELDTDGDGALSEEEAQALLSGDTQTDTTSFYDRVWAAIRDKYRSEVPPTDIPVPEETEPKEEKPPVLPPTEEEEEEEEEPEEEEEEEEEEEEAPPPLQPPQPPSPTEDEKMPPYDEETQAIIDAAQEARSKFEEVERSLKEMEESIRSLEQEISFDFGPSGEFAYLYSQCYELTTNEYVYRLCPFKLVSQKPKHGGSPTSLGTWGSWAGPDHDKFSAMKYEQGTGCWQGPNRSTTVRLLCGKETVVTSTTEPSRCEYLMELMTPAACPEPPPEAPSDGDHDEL
T1 sequence (Q8BHN3 33-944): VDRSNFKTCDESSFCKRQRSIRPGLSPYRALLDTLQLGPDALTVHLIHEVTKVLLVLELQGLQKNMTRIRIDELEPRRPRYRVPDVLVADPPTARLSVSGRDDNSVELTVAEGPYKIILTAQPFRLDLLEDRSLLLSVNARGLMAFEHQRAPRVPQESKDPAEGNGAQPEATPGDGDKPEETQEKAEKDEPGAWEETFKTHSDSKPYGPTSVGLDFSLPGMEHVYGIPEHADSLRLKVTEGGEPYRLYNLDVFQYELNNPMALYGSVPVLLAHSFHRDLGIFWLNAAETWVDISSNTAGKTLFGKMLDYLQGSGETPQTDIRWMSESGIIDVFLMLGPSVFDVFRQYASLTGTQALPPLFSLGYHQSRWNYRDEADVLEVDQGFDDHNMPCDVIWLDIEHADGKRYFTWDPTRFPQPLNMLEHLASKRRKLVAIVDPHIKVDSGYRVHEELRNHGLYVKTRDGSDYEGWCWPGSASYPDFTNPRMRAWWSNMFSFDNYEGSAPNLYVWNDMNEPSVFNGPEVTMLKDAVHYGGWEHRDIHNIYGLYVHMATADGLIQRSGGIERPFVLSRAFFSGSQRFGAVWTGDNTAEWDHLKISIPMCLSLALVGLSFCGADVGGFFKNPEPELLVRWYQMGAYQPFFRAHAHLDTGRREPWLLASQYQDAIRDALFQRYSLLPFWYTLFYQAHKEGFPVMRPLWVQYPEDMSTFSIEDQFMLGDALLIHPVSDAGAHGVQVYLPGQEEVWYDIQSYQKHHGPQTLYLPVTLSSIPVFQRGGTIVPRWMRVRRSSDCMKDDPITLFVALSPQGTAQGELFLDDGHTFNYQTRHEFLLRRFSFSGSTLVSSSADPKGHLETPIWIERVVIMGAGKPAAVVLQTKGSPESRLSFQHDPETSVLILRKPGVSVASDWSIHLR

[2] = biological target: recombinant human GAA (acid alpha-glucosidase) (Homo sapiens, UniProt P10253); assay: Acid alpha-glucosidase (GAA) assay (4-methylumbelliferyl-alpha-D-pyranoside substrate, fluorescence)
How it was run: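 Recombinant human enzyme preincubated 60 min at 37 °C with compound dilutions, then 4-methylumbelliferyl-alpha-D-pyranoside substrate added for 20 min at 37 °C. Stopped with glycine/NaOH pH 10; methylumbelliferone fluorescence (ex 365, em 440 nm) versus untreated enzyme; IC50 by 4-PL fit.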

[3] = biological target: T2, recombinant human GBA (beta-glucocerebrosidase) (Homo sapiens, UniProt P04062); assay: Beta-glucocerebrosidase (GBA, glucosylceramidase) assay (4-methylumbelliferyl-beta-D-pyranoside substrate, fluorescence)
T2 sequence (P04062 40-536): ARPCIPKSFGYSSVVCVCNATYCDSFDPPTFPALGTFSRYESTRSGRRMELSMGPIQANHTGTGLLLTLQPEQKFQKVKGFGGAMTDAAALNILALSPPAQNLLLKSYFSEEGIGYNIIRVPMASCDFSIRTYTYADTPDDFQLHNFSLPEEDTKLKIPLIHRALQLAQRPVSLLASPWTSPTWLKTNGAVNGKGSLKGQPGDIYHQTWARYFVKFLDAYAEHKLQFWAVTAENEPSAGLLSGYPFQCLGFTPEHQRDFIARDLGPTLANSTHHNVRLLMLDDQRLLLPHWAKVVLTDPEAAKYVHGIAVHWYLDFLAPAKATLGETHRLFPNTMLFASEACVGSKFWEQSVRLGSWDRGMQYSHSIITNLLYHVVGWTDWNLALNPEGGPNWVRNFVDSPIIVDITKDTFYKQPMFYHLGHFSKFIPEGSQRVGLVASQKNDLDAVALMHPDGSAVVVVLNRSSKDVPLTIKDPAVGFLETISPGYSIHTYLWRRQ
How it was run: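 Recombinant human GBA preincubated with compound dilutions 60 min at 37 °C, then 4-methylumbelliferyl-beta-D-pyranoside added for 60 min at 37 °C. Stopped at pH 10 (glycine/NaOH); fluorescence ex 365/em 440 nm. IC50 from 4-PL fit of inhibition relative to untreated enzyme.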

[4] = biological target: rat sucrase (partially purified alpha-glucosidase from intestinal rat powder) (Rattus norvegicus, UniProt P23739); assay: Intestinal alpha-glucosidase assay, sucrose substrate (Glucose GO Kit)
rat sucrase (partially purified alpha-glucosidase from intestinal rat powder), sequence (P23739 whole entry): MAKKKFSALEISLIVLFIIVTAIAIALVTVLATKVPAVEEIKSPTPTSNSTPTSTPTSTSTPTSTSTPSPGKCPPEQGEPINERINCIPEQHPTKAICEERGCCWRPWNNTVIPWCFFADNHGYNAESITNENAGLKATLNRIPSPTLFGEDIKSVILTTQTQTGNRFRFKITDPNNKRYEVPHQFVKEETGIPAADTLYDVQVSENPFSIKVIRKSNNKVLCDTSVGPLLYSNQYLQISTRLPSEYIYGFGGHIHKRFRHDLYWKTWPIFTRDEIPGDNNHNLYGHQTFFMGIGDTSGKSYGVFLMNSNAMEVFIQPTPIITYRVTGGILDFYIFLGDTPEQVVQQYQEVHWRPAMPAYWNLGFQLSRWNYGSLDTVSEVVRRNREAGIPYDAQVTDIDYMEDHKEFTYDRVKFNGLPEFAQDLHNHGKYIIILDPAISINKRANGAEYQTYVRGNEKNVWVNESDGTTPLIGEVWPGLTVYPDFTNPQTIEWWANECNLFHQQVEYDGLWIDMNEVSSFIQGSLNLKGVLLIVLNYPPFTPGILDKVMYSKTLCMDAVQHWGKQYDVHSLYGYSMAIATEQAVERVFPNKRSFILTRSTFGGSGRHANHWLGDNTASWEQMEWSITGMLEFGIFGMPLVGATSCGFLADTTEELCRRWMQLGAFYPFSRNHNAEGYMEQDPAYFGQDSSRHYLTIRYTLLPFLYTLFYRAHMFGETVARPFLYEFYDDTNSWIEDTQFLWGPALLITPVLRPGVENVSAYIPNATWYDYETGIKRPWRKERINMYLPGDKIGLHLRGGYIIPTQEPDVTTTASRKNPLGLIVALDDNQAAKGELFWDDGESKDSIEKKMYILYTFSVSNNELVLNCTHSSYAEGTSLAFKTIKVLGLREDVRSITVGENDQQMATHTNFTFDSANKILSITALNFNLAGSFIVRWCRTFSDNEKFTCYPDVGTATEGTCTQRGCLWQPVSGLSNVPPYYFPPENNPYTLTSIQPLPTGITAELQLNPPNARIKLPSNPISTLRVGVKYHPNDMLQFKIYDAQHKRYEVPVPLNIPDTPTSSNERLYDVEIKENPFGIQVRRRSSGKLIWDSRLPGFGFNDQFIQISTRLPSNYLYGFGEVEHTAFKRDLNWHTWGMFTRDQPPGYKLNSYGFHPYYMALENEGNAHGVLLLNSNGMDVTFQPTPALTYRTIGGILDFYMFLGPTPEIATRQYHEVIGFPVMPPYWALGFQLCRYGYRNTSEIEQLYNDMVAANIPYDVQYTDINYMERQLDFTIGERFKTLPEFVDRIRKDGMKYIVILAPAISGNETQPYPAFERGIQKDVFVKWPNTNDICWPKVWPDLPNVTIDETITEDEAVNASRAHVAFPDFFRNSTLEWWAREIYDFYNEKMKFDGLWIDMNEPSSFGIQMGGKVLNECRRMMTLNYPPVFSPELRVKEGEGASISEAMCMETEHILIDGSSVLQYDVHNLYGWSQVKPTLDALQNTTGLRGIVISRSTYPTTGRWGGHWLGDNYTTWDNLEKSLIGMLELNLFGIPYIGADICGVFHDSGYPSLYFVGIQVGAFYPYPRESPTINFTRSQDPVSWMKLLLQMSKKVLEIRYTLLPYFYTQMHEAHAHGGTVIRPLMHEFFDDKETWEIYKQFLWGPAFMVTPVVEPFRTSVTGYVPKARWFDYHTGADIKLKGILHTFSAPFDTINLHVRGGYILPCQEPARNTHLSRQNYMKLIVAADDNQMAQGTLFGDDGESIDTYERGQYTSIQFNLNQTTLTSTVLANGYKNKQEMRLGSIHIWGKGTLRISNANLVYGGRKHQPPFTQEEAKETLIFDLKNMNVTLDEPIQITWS
How it was run: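 Partially purified rat intestinal alpha-glucosidase preincubated 60 min at 37 °C with serial compound dilutions, then sucrose substrate added for 30 min at 37 °C. Reaction stopped by 5 min at 90 °C; released glucose detected with Glucose GO kit. IC50 from 4-PL fit of % inhibition vs concentration.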

SMILES: N#Cc1cc(-c2ncccn2)ccc1NCCCCCCN1C[C@H](O)[C@@H](O)[C@H](O)[C@H]1CO [Compound 1256, 5-(pyrimidin-2-yl)-2-({6-[(2R,3R,4R,5S)-3,4,5-trihydroxy-2-(hydroxymethyl)piperidin-1-yl]hexyl}amino)benzonitrile]
- pIC50 [1]: 8.22
- pIC50 [2]: 7.48
- pIC50 [3]: 5.91
- pIC50 [4]: 7.06

SMILES: N#Cc1cc(Br)cc(NCc2cccc(CN3C[C@H](O)[C@@H](O)[C@H](O)[C@H]3CO)c2)c1 [Compound 1023, 3-bromo-5-{[(3-{[(2R,3R,4R,5S)-3,4,5-trihydroxy-2-(hydroxymethyl)piperidin-1-yl]methyl}phenyl)methyl]amino}benzonitrile]
- pIC50 [1]: 4.37
- pIC50 [2]: 5.84
- pIC50 [3]: 4.04
- pIC50 [4]: 7.18

SMILES: OC[C@@H]1[C@@H](O)[C@H](O)[C@@H](O)CN1CCCCCCNc1cc(Cl)cc(-c2ncco2)c1 [Compound 1211, (2R,3R,4R,5S)-1-(6-{[3-chloro-5-(1,3-oxazol-2-yl)phenyl]amino}hexyl)-2-(hydroxymethyl)piperidine-3,4,5-triol]
- pIC50 [1]: 8.70
- pIC50 [2]: 7.80
- pIC50 [3]: 6.49
- pIC50 [4]: 7.14

SMILES: CS(=O)(=O)c1cc(NCc2cccc(CN3C[C@H](O)[C@@H](O)[C@H](O)[C@H]3CO)c2)cc(N2CCOCC2)c1 [Compound 1036, (2R,3R,4R,5S)-2-(hydroxymethyl)-1-{[3-({[3-methanesulfonyl-5-(morpholin-4-yl)phenyl]amino}methyl)phenyl]methyl}piperidine-3,4,5-triol]
- pIC50 [1]: 4.31
- pIC50 [2]: 5.56
- pIC50 [3]: < 4.00
- pIC50 [4]: 6.66

SMILES: CS(C)=NS(=O)(=O)c1cc(-c2ncccn2)ccc1NCCCCCCN1C[C@H](O)[C@@H](O)[C@H](O)[C@H]1CO [Compound 1247, N-(dimethyl-2-sulfanylidene)-5-(pyrimidin-2-yl)-2-({6-[(2R,3R,4R,5S)-3,4,5-trihydroxy-2-(hydroxymethyl)piperidin-1-yl]hexyl}amino)benzene-1-sulfonamide]
- pIC50 [1]: 8.22
- pIC50 [2]: 7.28
- pIC50 [3]: 4.93
- pIC50 [4]: 6.67

SMILES: OC[C@@H]1[C@@H](O)[C@H](O)[C@@H](O)CN1CCCCCCNc1ccc(-c2ncccn2)cc1Cl [Compound 1228, (2R,3R,4R,5S)-1-(6-{[2-chloro-4-(pyrimidin-2-yl)phenyl]amino}hexyl)-2-(hydroxymethyl)piperidine-3,4,5-triol]
- pIC50 [1]: 7.96
- pIC50 [2]: 7.17
- pIC50 [3]: 6.08
- pIC50 [4]: 7.21

SMILES: OC[C@@H]1[C@@H](O)[C@H](O)[C@@H](O)CN1CCCCCCNc1cc(Cl)cc(-c2ncccn2)c1 [Compound 1212, (2R,3R,4R,5S)-1-(6-{[3-chloro-5-(pyrimidin-2-yl)phenyl]amino}hexyl)-2-(hydroxymethyl)piperidine-3,4,5-triol]
- pIC50 [1]: 8.30
- pIC50 [2]: 7.33
- pIC50 [3]: 6.41
- pIC50 [4]: 7.05

SMILES: Cc1cc(NCc2cccc(CN3C[C@H](O)[C@@H](O)[C@H](O)[C@H]3CO)c2)cc(C2=COCCO2)c1 [Compound 1032, (2R,3R,4R,5S)-1-{[3-({[3-(5,6-dihydro-1,4-dioxin-2-yl)-5-methylphenyl]amino}methyl)phenyl]methyl}-2-(hydroxymethyl)piperidine-3,4,5-triol]
- pIC50 [1]: 4.32
- pIC50 [2]: 5.38
- pIC50 [3]: < 4.00
- pIC50 [4]: 7.44

SMILES: N#Cc1ccc(NCCCCCCN2C[C@H](O)[C@@H](O)[C@H](O)[C@H]2CO)c([N+](=O)[O-])c1 [Compound 1304, 3-nitro-4-({6-[(2R,3R,4R,5S)-3,4,5-trihydroxy-2-(hydroxymethyl)piperidin-1-yl]hexyl}amino)benzonitrile]
- pIC50 [1]: 7.66
- pIC50 [2]: 7.37
- pIC50 [3]: 7.37
- pIC50 [4]: 7.22

Source: patent US20250197372A1 (priority 2020, published 2025)
